{
  "source": "ChEMBL document CHEMBL1145120",
  "about": "“Molecular modeling of the three-dimensional structure of dopamine 3 (D3) subtype receptor: discovery of novel and potent D3 ligands through a hybrid pharmacophore- and structure-based database searching approach” (J Med Chem, 2003)",
  "note": "pKi: −log10 of the molar value.",
  "data": [
    {"target": "T1, D(3) dopamine receptor (Homo sapiens, UniProt P35462)", "T1 sequence (P35462 whole entry)": "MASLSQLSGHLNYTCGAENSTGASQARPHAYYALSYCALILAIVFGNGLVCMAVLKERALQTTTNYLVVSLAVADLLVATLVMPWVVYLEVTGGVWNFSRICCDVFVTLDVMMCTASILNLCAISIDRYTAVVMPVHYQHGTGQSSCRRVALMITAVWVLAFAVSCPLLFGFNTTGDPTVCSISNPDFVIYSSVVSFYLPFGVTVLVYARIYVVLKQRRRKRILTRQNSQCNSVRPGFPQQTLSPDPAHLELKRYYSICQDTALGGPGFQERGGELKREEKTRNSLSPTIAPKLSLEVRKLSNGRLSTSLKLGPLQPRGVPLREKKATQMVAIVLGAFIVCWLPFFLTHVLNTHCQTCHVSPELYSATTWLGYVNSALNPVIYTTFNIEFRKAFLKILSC", "assay": "Compound was measured for its ability to compete with [3H]spiperone binding to the human Dopamine receptor D3 transfected in CHO cells", "format": "cell-based", "values": [
      {"smiles": "CCN1CCC[C@H]1CNC(=O)c1c(O)c(Cl)cc(Cl)c1OC", "note": "[RACLOPRIDE]", "pKi": 8.43},
      {"smiles": "CCCN1CCOC2c3cc(O)ccc3OC[C@H]21", "note": "(some centres undefined)", "pKi": 8.96}
    ]},
    {"target": "T1, D(3) dopamine receptor", "assay": "not given", "values": [
      {"smiles": "CCCCN1CCCC1CNC(=O)c1cc(C#N)c2ccccc2c1OC", "note": "(centres undefined) [NAFADOTRIDE]", "pKi": 9.09}
    ]},
    {"target": "T1, D(3) dopamine receptor", "assay": "not given", "remark": "another data set of the same source", "values": [
      {"smiles": "CCC(=O)OC1(c2ccccc2)CCN(CCCC(=O)c2ccccc2)CC1", "pKi": 6.37},
      {"smiles": "CCCCN(CC)CC(C(C)=O)C1=C(O)OC2C=CC=CC2C1=O", "note": "(centres undefined)", "pKi": 5.00},
      {"smiles": "CCCCCN1CCN(C(CC(=O)c2ccccc2)C(=O)c2ccccc2)CC1", "note": "(centres undefined)", "pKi": 5.00},
      {"smiles": "O=c1[nH]c2ccccc2n1CCCN1CCN(C(c2ccccc2)c2ccccc2)CC1", "note": "[OXATOMIDE]", "pKi": 7.20},
      {"smiles": "CCCCN1C/C(=C\\c2ccc(Br)cc2)C(=O)/C(=C/c2ccc(Br)cc2)C1", "pKi": 6.00},
      {"smiles": "c1ccc2c3c([nH]c2c1)CCN1CCN(CCc2ccncc2)CC31", "note": "(centres undefined)", "pKi": 5.00},
      {"smiles": "CCn1c2ccccc2c2cc(NCCCN(C)C)ccc21", "pKi": 5.00},
      {"smiles": "CCOc1ccc(NC(=O)C2CCCN(CCc3ccccc3)C2)cc1", "note": "(centres undefined)", "pKi": 5.00},
      {"smiles": "O=C(OC1(c2nccc3ccccc23)CCN(CCc2ccccc2)CC1)c1ccccc1", "pKi": 6.00},
      {"smiles": "CCCCCCCN1CCC(C(=O)CC)(c2cccc(O)c2)CC1", "pKi": 5.58},
      {"smiles": "O=C(CCCN1CCN2c3ccccc3CCC2C1)c1ccc(F)cc1", "note": "(centres undefined)", "pKi": 7.08},
      {"smiles": "CC(=O)NCC1(c2ccccc2)CCN(CCCC(=O)c2ccc(F)cc2)CC1", "note": "[ACEPERONE]", "pKi": 5.00},
      {"smiles": "CCCCN1CSC(=S)N(Cc2ccccc2)C1", "pKi": 5.00},
      {"smiles": "CCCN(CCC)CCC(O)c1cc2c(c3ccccc13)CCCC2", "note": "(centres undefined)", "pKi": 5.90},
      {"smiles": "CCCCN1CN(CCCC)CN(C(=S)c2c(Cl)cccc2Cl)C1", "pKi": 5.00},
      {"smiles": "Cc1ccc(C)c2c1Sc1c(ccc3ccccc13)N2CCCN(C)C", "pKi": 6.35},
      {"smiles": "CCCN(CCC)CN1C(=O)c2ccccc2C1=O", "pKi": 5.00},
      {"smiles": "CN(C)C(=O)C1(c2ccc(Cl)cc2)CCN(CCCC(=O)c2ccc(F)cc2)CC1", "note": "[AMIPERONE]", "pKi": 7.36},
      {"smiles": "CCCCN(CCCC)Cc1c(C)nc2cc(OC)ccc2c1O", "pKi": 5.00},
      {"smiles": "O=C(CCCN1CCN2Cc3[nH]c4ccccc4c3CC2C1)c1ccc(F)cc1", "note": "(centres undefined) [BIRIPERONE]", "pKi": 7.96},
      {"smiles": "O=C(CCN1CCN2c3ccccc3CCC2C1)c1ccc(F)cc1", "note": "(centres undefined)", "pKi": 6.33},
      {"smiles": "CCN(CC)CCCN(C)Cc1c(-c2ccccc2)oc(-c2ccccc2)c1Cl", "pKi": 5.86},
      {"smiles": "O=C(CCCCN1CCN2c3ccccc3CCC2C1)c1ccccc1", "note": "(centres undefined)", "pKi": 6.53},
      {"smiles": "N#CCCN(CCCN1CCOCC1)CN1C(=O)c2ccccc2C1=O", "pKi": 5.00},
      {"smiles": "OC(CCCN1CCN2CCc3[nH]c4ccccc4c3C2C1)c1ccc(F)cc1", "note": "(centres undefined)", "pKi": 5.62},
      {"smiles": "CCC(=O)OC1(c2ccccc2)CCN(CCC(=O)c2ccccc2)CC1C", "note": "(centres undefined)", "pKi": 5.00},
      {"smiles": "Cc1ccc2c(c1)Sc1c(ccc3ccccc13)N2CCCN(C)C", "pKi": 5.85}
    ]},
    {"target": "T1, D(3) dopamine receptor", "assay": "biochemical", "values": [
      {"smiles": "CCN(CC)CCNC(=O)c1cc(Cl)c(N)cc1OC", "note": "[METOCLOPRAMIDE]", "pKi": 7.57},
      {"smiles": "CCCN[C@@H]1CCc2c(OC)cccc2[C@@H]1C", "pKi": 7.15},
      {"smiles": "OC1(c2ccc(Cl)cc2)CCN(Cc2c[nH]c3ccccc23)CC1", "pKi": 7.22},
      {"smiles": "CCCN(CCC)C1CCc2cc3c(cc2C1)OCC3", "note": "(centres undefined)", "pKi": 7.89}
    ]}
  ]
}
